In patent US20140206737A1 (Beijing Zhongwei Shennong Chronic Disease Medical Research …, priority 2013, published 2014):
Structures can show the parent of a compound that is named as a salt.

Key:
[1] = tested on: opioid dependent participants; experiment: Treatment of heroin addiction: degree of anxiety by Hamilton Anxiety Scale (HAMA); assay type: in vivo, human; conditions: Day 5
Protocol: (§1) 1.1. Subject selection criteria: 60 participants, in the range of 18-50 years of age, male or female, and opioid dependent as diagnosed according to the DSM-IV diagnostic criteria for opioid dependence.
(§2) 1.3. Grouping: 60 cases of participants were randomly divided into two groups according to the order of admission: the test group and the methadone control group.
(§3) The control group used methadone hydrochloride oral medication of 10 mg/10 ml each. Comparison method: according to the heroin-dependent self-restraining degree of 7-10 days, the treatment was designed to be 10 days long for both groups. […] The treatment concluded on day 10. Methadone control group was admitted 50-60 mg methadone on the first day; starting on day 2, the methadone dose was reduced by 10 mg per day each day; starting on day 6, the methadone dose was reduced by 2 mg per day each day. The treatment concluded on day 10. Supplementary drugs used in the two groups included normal doses of clonazepam tablets (clonazopam), alprazolam tablets (Alprazoli) once a day at night.
1.5.3. […]
1.6. Statistical analysis of the two groups: the general characteristics, withdrawal symptoms, and anxiety symptoms of the two groups, were statistically analyzed using the t test, chi-square test and Fisher's Exact Test, using suitable software such as SPSS 7.0. […]

[2] = tested on: opioid dependent participants; experiment: Treatment of heroin addiction: adverse reactions and side effects; conditions: 10-day treatment
Protocol: as §1, §2, §3
1.5.2. Recordation of adverse reactions: adverse reactions were evaluated in the withdrawal symptom measurement table, using a total of 10 indicators that include: dizziness, syncope, malaise, nausea, vomiting, sweating, dry mouth, drowsiness, blurred vision, disturbance of consciousness. The recordation was done each morning at 9:00.
(§4) 1.6. Statistical analysis of the two groups: the general characteristics, withdrawal symptoms, and anxiety symptoms of the two groups, were statistically analyzed using the t test, chi-square test and Fisher's Exact Test, using suitable software such as SPSS 7.0. The t test was applied to the symptom data of the two groups, and chi-square test or Fisher's Exact Test was applied to the count data.

[3] = tested on: opioid dependent participants; experiment: Treatment of heroin addiction: clinical rating of withdrawal symptoms; assay type: in vivo, human
From the text: as §1
Subject exclusion criteria: candidates with serious heart disease, liver or kidney dysfunction, mental illness, serious bodily weakness, or pregnant or lactating women were excluded.
as §2, §3
1.5.1. Clinical rating used indicators of withdrawal, which has 20 indicators including craving, anxiety, agitation, nausea, vomiting, hot face, chills, or alternating chills and fever, yawning, runny nose, tears, sweating, drowsiness, cutis anserina, tremors, bone and muscle pain, anorexia, abdominal pain, diarrhea, insomnia, and curled position. The rating was done daily on the day before the treatment and on each day during the treatment. The severity of withdrawal symptoms was scored as level 0-4 (five levels in total). Scoring for each participant was done at 9:00 am every day.
as §4

## CCC(=O)C(CC(C)N(C)C)(c1ccccc1)c1ccccc1 (stereo not drawn) [Methadone, methadone hydrochloride]
[1]
  emotional changes measured by HAMA (x ± s): 8.83 ± 0.45
[2]; count, 30 per group
  Adverse Reactions: Abdominal pain: 6
  Adverse Reactions: Chills: 7
  Adverse Reactions: Diarrhea: 3
  Adverse Reactions: Runny nose: 8
  Adverse Reactions: Tears: 8
[2]; heroin addiction study
  Side effects: dizziness, malaise, nausea, sweating and heart palpitations
[3]; Before treatment, 20 indicators scored level 0-4, 30 per group
  withdrawal symptoms (x ± s): 56.03 ± 1.80
[3]; Day 1 of treatment
  withdrawal symptoms (x ± s): 5.01 ± 0.83
[3]; Day 2 of treatment
  withdrawal symptoms (x ± s): 27.78 ± 1.40
[3]; Day 3 of treatment
  withdrawal symptoms (x ± s): 19.71 ± 1.13
[3]; Day 4 of treatment
  withdrawal symptoms (x ± s): 13.54 ± 1.01
[3]; Day 5 of treatment
  withdrawal symptoms (x ± s): 8.27 ± 0.28
[3]; Day 6 of treatment
  withdrawal symptoms (x ± s): 3.84 ± 0.06
[3]; Day 7 of treatment
  withdrawal symptoms (x ± s): 3.26 ± 0.27
[3]; Day 8 of treatment
  withdrawal symptoms (x ± s): 3.84 ± 0.07
[3]; Day 9 of treatment
  withdrawal symptoms (x ± s): 3.82 ± 0.18
[3]; Day 10 of treatment
  withdrawal symptoms (x ± s): 4.80 ± 0.11
